Data on one molecule can be found in patent US12485106B2, “Methods of treating fibrotic liver diseases or conditions with indeglitazar” (PLEIOGENIX INC., priority 2023, dated 2025).

The test system of data set [1] is mouse model of human alcoholic hepatitis. Kind of data set: AH mouse model (chronic and binge ethanol feeding plus LPS), dose-response study. The data set is classed as in vivo. Conditions: for effect on body weight: 10, 30 and 50 mg/kg/day oral gavage, male and female mice. An excerpt: Mouse model generation and treatment. The AH mouse model was generated as described in Shah et al. through chronic and binge ethanol feeding plus lipopolysaccharides (LPS) administration to provide a second hit to increase liver damage (Shah R et al., Oxid Med Cell Longev, (2018), 2018:9630175; Lamas-Paz A et al., World J Gastroenterol, (2018), 24:5063-75). This model is easy to implement and recapitulates the major features of human AH including marked ALT elevation, liver steatosis, and fibrosis (O'Beirne J., Dig Dis Sci., (2020), 65:920-1). A total of 60 mice, were used at a 50:50 male/female ratio to provide a comprehensive representation applicable in treating the general population. C57BL6 mice (6-8-week-old) were fed Lieber-DeCarli '82 rodent liquid diet (LDC) ad libitum for 5 days to acclimatize them to tube feeding. On day 6, mice were treated according to Table 1. Ethanol-fed groups were allowed free access to LDC diet containing 5% (vol/vol) ethanol for 11 days, and control groups were pair-fed with the LDC diet only. Indeglitazar was administered by oral gavage starting from day 6. On day 12, mice were given a single dose of 5 g/kg/bw of EtOH by oral gavage, and LPS (2 mg/kg/bw) by intraperitoneal injection (IP), pair-fed mice were fed isocaloric maltose dextrin and all mice were euthanized 6 h later.
Analysis and tests: Mice were treated for 11 days; body weights were measured before and during administration. Plasma was analyzed for ALT, AST, and GGT. A full necropsy was performed at the end-point together with liver histology to assess steatosis, and inflammatory infiltrates. Briefly, liver tissue was fixed in 10% neutral buffered formalin and paraffin-embedded, sectioned into […] thickness, and stained with hematoxylin-eosin (H&E) and Oil-Red O staining for evaluation of histopathological changes. Stained liver slices were analyzed under a bright-field microscope using the histological scoring system for nonalcoholic fatty liver disease (Kleiner D L et al., Hepatology, (2005), 41:1313-21). The remaining liver tissue was analyzed for liver triglycerides and cholesterol levels by biochemical assays.
The AH mouse model was generated as described in Shah et al. through chronic and binge ethanol (EtOH) feeding plus lipopolysaccharide (LPS) administration, to provide a second insult, to increase liver damage (Bertola A et al., Nat Protoc, (2013), 8:627-637; Takahashi Y et al., (2017), 313-339; Shah R et al., Oxid Med Cell Longev, (2018), 2018:9630175). This model recapitulates the major features of human AH, including marked ALT and AST elevation, liver steatosis, and fibrosis (Lucey M R et al., N Engl J Med., (2009), 360:2758-2769). For a dose-response study, a total of 60 (12 per group, 50:50 male/female ratio) C57BL6 mice (6-8-weeks old) were fed Lieber-DeCarli '82 rodent liquid diet (LDC) ad libitum, for 5 days, to acclimatize them to tube feeding. On days 6-11, mice were fed the LCD diet plus ethanol (5% vol:vol), and treated with indeglitazar (10 mg/kg, 30 mg/kg, or 50 mg/kg, oral gavage). On day 12, mice were given a single dose of EtOH (5 g/kg/body weight) by oral gavage and LPS (2 mg/kg/body weight) by ip injection; pair-fed mice were fed isocaloric maltose dextrin and all mice were euthanized 6 h later.

A short description of data set [2]: Parallel Artificial Membrane Permeability-Blood Brain Barrier Assay (PMBBB-096). The data set is classed as in vitro ADME. The settings on record: compared to promazine HCl (high permeability control). The protocol:
Indeglitazar was evaluated using the Parallel Artificial Membrane Permeability-Blood Brain Barrier Assay (PMBBB-096; BioAssay Systems, Hayward, CA).

The test system of data set [3] is adiponectin gene expression. Conditions: compared with full PPAR γ-agonists like pioglitazone; cited from earlier work.

“Also recorded” adds a separate entry of the source.

As for `COc1ccc(S(=O)(=O)n2cc(CCC(=O)O)c3cc(OC)ccc32)cc1` [Indeglitazar, 3-[5-methoxy-1-(4-methoxybenzenesulfonyl)-1H-indol-3-yl]-propanoic acid], the “effect on liver triglycerides” value in data set [1] (50 mg/kg, vs vehicle+EtOH) was “significantly reduced”. Besides, the “reduction of ALT activity” value in data set [1] (50 mg/kg, vs vehicle+EtOH, P<0.0001) came out at 60%. Moreover, in data set [1] (50 mg/kg, vs vehicle+EtOH, P<0.004), the “reduction of AST” value worked out at 49%. The “reduction of liver TG” value in data set [1] (50 mg/kg, vs vehicle+EtOH, P<0.03) is 35%. In data set [1] (10, 30, 50 mg/kg/day), the “effect on liver total cholesterol” value was “no significant effect”. In data set [1] (10, 30 and 50 mg/kg oral gavage, vs EtOH-treated vehicle control), the “effect on food intake” value is given as “Neither EtOH (vs no EtOH vehicle control) or indeglitazar had a significant effect”. In addition, the “effect on body weight” value in data set [1] (vs ethanol-treated vehicle control) is “no significant effect”; in data set [1] (vs ethanol-treated vehicle control, listed as indeglitazar) it was “Neither EtOH (vs no EtOH vehicle control) or indeglitazar had a significant effect; also recorded: no significant effect”. For the same molecule, the “effect on AST” value in data set [1] (10 and 50 mg/kg, vs ethanol-treated vehicle control) is “significant decreases”. Also, the “effect on ALT” value in data set [1] (all three doses (10, 30, 50 mg/kg), vs ethanol-treated vehicle control) was “significant decrease”. Also, the “ability to cross the blood-brain barrier” value in data set [2] was about 15%. Besides, the “stimulating adiponectin gene expression” value in data set [3] is recorded as “only partially effective”.
